Test results published in PubChem BioAssay (NCI).
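48-hour exposure; five concentrations; linearly interpolated endpoints. The concentration for 50% growth inhibition is given as GI50. TGI marks complete inhibition of growth.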

What was measured:
Assay in all cases: NCI tumour cell line growth inhibition, 48 h
LOX IMVI melanoma = system: LOX IMVI melanoma
SW-620 colon = system: SW-620 colon
SK-MEL-5 melanoma = system: SK-MEL-5 melanoma
SNB-19 CNS = system: SNB-19 CNS
HS 578T breast = system: HS 578T breast
CAKI-1 renal = system: CAKI-1 renal
IGROV1 ovarian = system: IGROV1 ovarian
SF-268 CNS = system: SF-268 CNS
OVCAR-4 ovarian = system: OVCAR-4 ovarian
TK-10 renal = system: TK-10 renal
786-0 renal = system: 786-0 renal
KM12 colon = system: KM12 colon
RPMI-8226 leukemia = system: RPMI-8226 leukemia
NCI-H460 lung = system: NCI-H460 lung
BT-549 breast = system: BT-549 breast
K-562 leukemia = system: K-562 leukemia
COLO 205 colon = system: COLO 205 colon
MALME-3M melanoma = system: MALME-3M melanoma
HCC-2998 colon = system: HCC-2998 colon
HOP-62 NSCLC = system: HOP-62 NSCLC
A498 renal = system: A498 renal
M14 melanoma = system: M14 melanoma
EKVX NSCLC = system: EKVX NSCLC
SK-MEL-28 melanoma = system: SK-MEL-28 melanoma
MOLT-4 leukemia = system: MOLT-4 leukemia
HT29 colon = system: HT29 colon
SF-295 CNS = system: SF-295 CNS
HL-60(TB) leukemia = system: HL-60(TB) leukemia
OVCAR-5 ovarian = system: OVCAR-5 ovarian
SF-539 CNS = system: SF-539 CNS
SK-OV-3 ovarian = system: SK-OV-3 ovarian
HOP-92 NSCLC = system: HOP-92 NSCLC
U251 CNS = system: U251 CNS
NCI-H226 lung = system: NCI-H226 lung
MDA-MB-231 breast = system: MDA-MB-231 breast
MCF7 breast = system: MCF7 breast
CCRF-CEM leukemia = system: CCRF-CEM leukemia
SNB-75 CNS = system: SNB-75 CNS
UACC-62 melanoma = system: UACC-62 melanoma
ACHN renal = system: ACHN renal
MDA-MB-435 = system: MDA-MB-435
HCT-15 colon = system: HCT-15 colon
PC-3 prostate = system: PC-3 prostate
SN12C renal = system: SN12C renal
OVCAR-3 ovarian = system: OVCAR-3 ovarian
NCI/ADR-RES ovarian = system: NCI/ADR-RES ovarian
NCI-H23 lung = system: NCI-H23 lung
HCT-116 colon = system: HCT-116 colon
A549 NSCLC = system: A549 NSCLC
T-47D breast = system: T-47D breast
DU-145 prostate = system: DU-145 prostate

With `Cc1ccc(NCCN2CCCCC2)c2c(=O)c3ccccc3sc12` as the molecule, how does the GI50 (LOX IMVI melanoma) read?
Its GI50 is 1.78 µM.

And the TGI (LOX IMVI melanoma)?
Its TGI is 3.68 µM.

And the GI50 (SW-620 colon)?
Its GI50 is 1.96 µM.

And the TGI (SW-620 colon)?
The TGI was 4.01 µM.

And the GI50 (SK-MEL-5 melanoma)?
Its GI50 is 1.62 µM.

What about the TGI (SK-MEL-5 melanoma) of the same molecule?
The TGI was 3 µM.

What about the GI50 (SNB-19 CNS) of the same molecule?
Its GI50 is 2.8 µM.

And the TGI (SNB-19 CNS)?
Its TGI is 13.1 µM.

What about the GI50 (HS 578T breast) of the same molecule?
The GI50 was 2.03 µM.

And the TGI (HS 578T breast)?
The TGI was 5.17 µM.

What about the GI50 (CAKI-1 renal) of the same molecule?
The GI50 was 0.278 µM.

And the TGI (CAKI-1 renal)?
Its TGI is 2.43 µM.

What about the GI50 (IGROV1 ovarian) of the same molecule?
The GI50 was 1.48 µM.

And the TGI (IGROV1 ovarian)?
The TGI was 4.3 µM.

And the GI50 (SF-268 CNS)?
The GI50 was 5.33 µM.

And the TGI (SF-268 CNS)?
Its TGI is 18.7 µM.

What about the GI50 (OVCAR-4 ovarian) of the same molecule?
Its GI50 is 5.57 µM.

What about the TGI (OVCAR-4 ovarian) of the same molecule?
The TGI was 18.1 µM.

What about the GI50 (TK-10 renal) of the same molecule?
Its GI50 is 2 µM.

And the TGI (TK-10 renal)?
The TGI was 5.82 µM.

What about the GI50 (786-0 renal) of the same molecule?
Its GI50 is 1.63 µM.

And the TGI (786-0 renal)?
Its TGI is 3.61 µM.

And the GI50 (KM12 colon)?
The GI50 was 3.81 µM.

What about the TGI (KM12 colon) of the same molecule?
The TGI was 14.4 µM.

And the GI50 (RPMI-8226 leukemia)?
Its GI50 is 1.49 µM.

What about the TGI (RPMI-8226 leukemia) of the same molecule?
Its TGI is 3.42 µM.

And the GI50 (NCI-H460 lung)?
The GI50 was 1.89 µM.

And the TGI (NCI-H460 lung)?
Its TGI is 3.88 µM.

And the GI50 (BT-549 breast)?
Its GI50 is 2.43 µM.

What about the TGI (BT-549 breast) of the same molecule?
The TGI was 9.59 µM.

And the GI50 (K-562 leukemia)?
The GI50 was 1.64 µM.

What about the TGI (K-562 leukemia) of the same molecule?
The TGI was 3.52 µM.

And the GI50 (COLO 205 colon)?
The GI50 was 1.45 µM.

What about the TGI (COLO 205 colon) of the same molecule?
The TGI was 2.85 µM.

What about the GI50 (MALME-3M melanoma) of the same molecule?
The GI50 was 1.19 µM.

What about the TGI (MALME-3M melanoma) of the same molecule?
The TGI was 2.55 µM.

And the GI50 (HCC-2998 colon)?
Its GI50 is 2.16 µM.

What about the TGI (HCC-2998 colon) of the same molecule?
Its TGI is 3.67 µM.

And the GI50 (HOP-62 NSCLC)?
The GI50 was 1.55 µM.

And the TGI (HOP-62 NSCLC)?
Its TGI is 3.07 µM.

What about the GI50 (A498 renal) of the same molecule?
The GI50 was 1.91 µM.

And the TGI (A498 renal)?
The TGI was 3.64 µM.

And the GI50 (M14 melanoma)?
The GI50 was 1.61 µM.

And the TGI (M14 melanoma)?
Its TGI is 2.97 µM.

And the GI50 (EKVX NSCLC)?
The GI50 was 2.77 µM.

And the TGI (EKVX NSCLC)?
Its TGI is 13.1 µM.

What about the GI50 (SK-MEL-28 melanoma) of the same molecule?
The GI50 was 2.43 µM.

And the TGI (SK-MEL-28 melanoma)?
The TGI was 4.16 µM.

And the GI50 (MOLT-4 leukemia)?
Its GI50 is 1.99 µM.

And the TGI (MOLT-4 leukemia)?
The TGI was 4.91 µM.

And the GI50 (HT29 colon)?
Its GI50 is 1.97 µM.

What about the TGI (HT29 colon) of the same molecule?
Its TGI is 4.72 µM.

And the GI50 (SF-295 CNS)?
The GI50 was 1.63 µM.

What about the TGI (SF-295 CNS) of the same molecule?
The TGI was 3.73 µM.

And the GI50 (HL-60(TB) leukemia)?
The GI50 was 1.66 µM.

What about the TGI (HL-60(TB) leukemia) of the same molecule?
Its TGI is 3.6 µM.

And the GI50 (OVCAR-5 ovarian)?
The GI50 was 1.97 µM.

And the TGI (OVCAR-5 ovarian)?
Its TGI is 3.64 µM.

And the GI50 (SF-539 CNS)?
Its GI50 is 1.97 µM.

What about the TGI (SF-539 CNS) of the same molecule?
The TGI was 5.98 µM.

What about the GI50 (SK-OV-3 ovarian) of the same molecule?
Its GI50 is 2.04 µM.

And the TGI (SK-OV-3 ovarian)?
The TGI was 6.03 µM.

What about the GI50 (HOP-92 NSCLC) of the same molecule?
The GI50 was 1.88 µM.

What about the TGI (HOP-92 NSCLC) of the same molecule?
Its TGI is 7.56 µM.

And the GI50 (U251 CNS)?
Its GI50 is 2.61 µM.

And the TGI (U251 CNS)?
Its TGI is 7.9 µM.

What about the GI50 (NCI-H226 lung) of the same molecule?
The GI50 was 2.24 µM.

What about the TGI (NCI-H226 lung) of the same molecule?
The TGI was 4.96 µM.

And the GI50 (MDA-MB-231 breast)?
Its GI50 is 2.12 µM.

And the TGI (MDA-MB-231 breast)?
The TGI was 4.77 µM.

What about the GI50 (MCF7 breast) of the same molecule?
The GI50 was 1.56 µM.

What about the TGI (MCF7 breast) of the same molecule?
Its TGI is 3.55 µM.

And the GI50 (CCRF-CEM leukemia)?
The GI50 was 2.38 µM.

And the TGI (CCRF-CEM leukemia)?
The TGI was 6.92 µM.

What about the GI50 (SNB-75 CNS) of the same molecule?
The GI50 was 2.61 µM.

And the TGI (SNB-75 CNS)?
Its TGI is 8.09 µM.

What about the GI50 (UACC-62 melanoma) of the same molecule?
The GI50 was 1.92 µM.

And the TGI (UACC-62 melanoma)?
Its TGI is 3.77 µM.

What about the GI50 (ACHN renal) of the same molecule?
The GI50 was 2.68 µM.

And the TGI (ACHN renal)?
The TGI was 7.47 µM.

What about the GI50 (MDA-MB-435) of the same molecule?
The GI50 was 1.78 µM.

And the TGI (MDA-MB-435)?
The TGI was 3.73 µM.

And the GI50 (HCT-15 colon)?
Its GI50 is 3.17 µM.

And the TGI (HCT-15 colon)?
Its TGI is 10.8 µM.

And the GI50 (PC-3 prostate)?
Its GI50 is 2.14 µM.

And the TGI (PC-3 prostate)?
Its TGI is 7.49 µM.

What about the GI50 (SN12C renal) of the same molecule?
The GI50 was 4.35 µM.

And the TGI (SN12C renal)?
Its TGI is 17.6 µM.

What about the GI50 (OVCAR-3 ovarian) of the same molecule?
The GI50 was 4.75 µM.

What about the TGI (OVCAR-3 ovarian) of the same molecule?
The TGI was 17.6 µM.

And the GI50 (NCI/ADR-RES ovarian)?
Its GI50 is 2.45 µM.

What about the TGI (NCI/ADR-RES ovarian) of the same molecule?
Its TGI is 6.78 µM.

What about the GI50 (NCI-H23 lung) of the same molecule?
Its GI50 is 2.25 µM.

What about the TGI (NCI-H23 lung) of the same molecule?
Its TGI is 5.77 µM.

And the GI50 (HCT-116 colon)?
Its GI50 is 1.68 µM.

What about the TGI (HCT-116 colon) of the same molecule?
Its TGI is 3.17 µM.

What about the GI50 (A549 NSCLC) of the same molecule?
The GI50 was 1.42 µM.

What about the TGI (A549 NSCLC) of the same molecule?
Its TGI is 2.97 µM.

And the GI50 (T-47D breast)?
The GI50 was 2.02 µM.

What about the TGI (T-47D breast) of the same molecule?
The TGI was 6 µM.

And the GI50 (DU-145 prostate)?
The GI50 was 3.76 µM.

What about the TGI (DU-145 prostate) of the same molecule?
Its TGI is 14.4 µM.
